In patent US7977330B2, “Salts and crystal modifications thereof” (Novartis AG, priority 2006, dated 2011):

Assay: solubility in aqueous media
Type: physicochemical
Settings: qualitative statement

SMILES | solubility in aqueous media
O=C(Nc1ccccc1F)NC1N=C(c2ccccc2)c2ccccc2NC1=O (centres unmarked) [RSV604 free base, 1-(2-Fluoro-phenyl)-3-(2-oxo-5-phenyl-2,3-dihydro-1H-benzo[e][1,4]diazepin-3-yl)-urea] | low solubility
O.O=C(Nc1ccccc1F)NC1N=C(c2ccccc2)c2ccccc2NC1=O.O=S(=O)(O)c1ccccc1 (centres unmarked) [RSV604 Besylate Monohydrate Salt, 1-(2-Fluoro-phenyl)-3-(2-oxo-5-phenyl-2,3-dihydro-1H-benzo[e][1,4]diazepin-3-yl)-urea besylate monohydrate] | particularly good solubility properties
